Test results reported in publication PMC7356970, “A Population Pharmacokinetic and Pharmacodynamic Model of CKD-519” (Pharmaceutics, 2020).
≈ marks a conversion by molar mass, not a printed value.

Assays:
[1] = design: method as in PMID 30107219, PMID 27895466; conditions: at pH 7.4; cited from earlier work
serum CETP concentration = serum CETP concentration during multiple dosing; format: in vivo, human; conditions: time-dependent, in house data
From the text: As reported earlier in other CETP inhibitors, the administration of CKD-519 in this study led to an approximately 2.5 fold increase in serum CETP concentration in a time-dependent manner (in house data). In the placebo group, serum CETP concentration increased by about 30% after two weeks (in house data). It has been reported that transcription of the CETP gene is under the control of extrinsic and intrinsic factors. Dietary cholesterol up-regulates CETP expression in human CETP-transgenic mice, and plasma cholesterol levels also correlate with CETP mass in humans. The increase in CETP activity in the placebo group might be due to increased serum CETP mass because dietary cholesterol regularly served during hospitalization for three weeks could have promoted CETP expression. […] Linear, Emax, and sigmoid Emax models were tested to explain CETP activity increase in the placebo group, and the Emax model by time best described the placebo effect.

LDL-C = test: population LDL-C model (turnover, sigmoid Emax); format: in vivo, human
Protocol: (§1) Blood samples for PK or PD were collected on days 1 (0, 1, 2, 3, 4, 5, 6, 7, 8, 10, 12, 18, and 24 h) and 14 (0, 1, 2, 3, 4, 5, 6, 7, 8, 10, 12, 18, 24, 32, 48, 72, 96, 120, 144, and 168 h), along with daily sampling on days 2 through 13 to determine trough levels of drug concentration, CETP activity, and lipid values. Each blood sample for PK and CETP activity was collected in sodium heparin tubes and then centrifuged at 1900 g for 10 min. Their aliquots were stored at or below […] until analysis. The plasma concentrations of CKD-519 were measured using a validated high-performance liquid chromatography-tandem mass spectrometry assay. A 100 μL plasma sample was mixed with 10 μL internal standard working solution and 300 μL acetonitrile. After centrifugation, 3 μL supernatant was injected into the column. The lower limit of quantification was 1.0 ng/mL. The calibration curve was linear over the concentration range of 1.0–2000 ng/mL. The precision of the assay was less than 2.7% coefficient of variation, and the accuracy of the assay was within the range of 93.7–113.0% [5]. Plasma CETP activity was measured by using a fluorescent assay method previously described. HDL-C and LDL-C were measured with an ADIVA 1650 Clinical Chemistry System (Siemens Medical Solutions, Tarrytown, NY, USA).
(§2) For each of the HDL-C and LDL-C model development, their clinical laboratory results were used. Their responses by changing CETP activity were described using turnover models. Taking into account the physiological mechanism of CETP on lipid metabolism, the CETP effect was incorporated into the model as a stimulatory function of HDL-C elimination and an inhibitory function of LDL-C elimination. The effect of CETP activity on HDL-C or LDL-C was evaluated using linear, Emax, or sigmoid Emax models.
(§3) HDL-C and LDL-C models were best described with the sigmoid Emax function. The LDL-C in the placebo group tended to increase gradually over time. Thus, a linear model was used to describe the placebo effect on LDL-C after comparison with Emax and sigmoid Emax models. The changes in HDL-C and LDL-C concentration were described as follows:(7) dHDL/dt=Ksyn−Kdeg×AHDL×(1+RESCETP) (8) dLDL/dt=Ksy×(1+PLA)−Kdeg×ALDL×(1−RESCETP) (9) RESCETP=CETPactivityγ×Rmax/CETPactivityγ+R50γ (10) PLA=β×time where Ksyn and Ksy are the zero-order production rate constant, Kdeg is the first-order elimination rate constant, RESCETP is the change in CETP activity, Rmax is the maximal effect of CETP activity on HDL-C and LDL-C response, R50 is the CETP activity required to attain 50% maximal response of HDL-C and LDL-C, PLA is the placebo effect, and β is the proportionality constant.

CETP activity [2] = molecular target: T1, CETP activity (Homo sapiens, UniProt P11597); test: food effect on inhibition of CETP activity, single 200 mg; format: in vivo
T1 construct: from tissue; host or cells: plasma of healthy subjects (sodium heparin tubes)
T1 sequence (P11597 18-493): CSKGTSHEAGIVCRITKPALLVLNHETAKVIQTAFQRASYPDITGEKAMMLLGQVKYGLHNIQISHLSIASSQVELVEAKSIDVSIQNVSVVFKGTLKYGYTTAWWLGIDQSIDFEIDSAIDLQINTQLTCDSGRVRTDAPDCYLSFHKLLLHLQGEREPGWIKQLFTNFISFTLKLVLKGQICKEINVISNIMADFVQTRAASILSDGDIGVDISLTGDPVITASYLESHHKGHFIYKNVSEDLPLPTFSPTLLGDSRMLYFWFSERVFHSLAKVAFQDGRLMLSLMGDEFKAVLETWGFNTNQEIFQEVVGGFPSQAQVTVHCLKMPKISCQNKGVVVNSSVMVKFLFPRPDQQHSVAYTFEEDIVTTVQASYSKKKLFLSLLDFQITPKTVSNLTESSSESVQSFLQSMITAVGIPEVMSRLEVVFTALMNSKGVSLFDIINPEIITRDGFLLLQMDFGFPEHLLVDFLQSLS
From the text: (§4) The exposure of CKD-519 increased with the dose. However, maximum plasma concentration (Cmax) and area under the plasma concentration-time curve (AUC) normalized by dose decreased with each incremental dose.

HDL-C = test: population HDL-C model (turnover, sigmoid Emax); format: in vivo, human
Protocol: as §1, §2, §3

[3] = multiple-dose study in healthy male subjects, plasma PK and population PK model; format: in vivo, human; conditions: for CL/F: observed
Protocol: A randomized, double-blinded, placebo-controlled, multiple-dose, and dose-escalation study was conducted in a total of 32 healthy male subjects aged 19–55 years in four cohorts (50, 100, 200, and 400 mg). Six subjects were assigned to CKD-519, and two to matching placebo in each cohort. Dose escalation to the next cohort was done after the safety profile was reviewed. CKD-519 was available as two dosage forms of 50 and 100 mg tablets.
Enrolled subjects were admitted on day −1. CKD-519 or placebo was administered to randomly assigned subjects for 14 days with a standard breakfast meal (700–800 kcal, containing 5–25% fat content). All subjects were hospitalized until completion of blood sampling for PK and PD (from day −1 to day 21). All meals were nutritionally equivalent and provided at the same time scheduled throughout the study period. The participants were not permitted to take any drugs or herbal medications and also were restricted from consuming any other snacks or beverages during the study.
as §1
PK and PD models were developed using NONMEM version 7.3 (Icon Development Solutions, Ellicott City, MD, USA) using a first-order conditional estimation with interaction method (FOCE-INTER). R (version 3.6.1, R Foundation for Statistical Computing, Vienna, Austria) was used for data preparation, graphical analysis, and model diagnostics. The population PK-PD model was developed sequentially. The PK model was initially developed, and then the CETP model (PK-PD) was developed using individual PK parameters estimated from the final PK model. Finally, the cholesterol (HDL-C or LDL-C) models were developed using the individual CETP parameters estimated from the final CETP model.
Inter-individual variability (IIV) for each parameter in all models was assumed to follow a Gaussian distribution with a mean of 0 and variance of ω^2. For the PK model, once the IIV term was selected, the covariance between the terms was assessed using an omega block on selected parameters. As for the residual error, additive, proportional, and combined models were tested. The model was selected after a comparison of several criteria such as a decrease in the objective function value (OFV), completion of the estimation and covariance routines, the precision of the parameter and error estimates, and visual exploration of the diagnostic plots.
Several disposition models were assessed, including 1-, 2-, and 3- compartment structural models. Absorption was evaluated with first-order, zero-order (with and without lag time), Weibull-type, and Erlang’s model. The bioavailability was assessed about the effects of the dose and time. […]

Plasma CETP activity = molecular target: T2, Plasma CETP activity (Homo sapiens, UniProt P11597); test: population CETP model (turnover model), plasma CETP activity by fluorescent assay; format: in vivo
T2 construct: from tissue; host or cells: plasma of healthy subjects (sodium heparin tubes)
T2 sequence (P11597 18-493): T1 sequence (P11597 18-493)
Protocol: as §1
Since CETP inhibition is closely related to HDL-C increase and LDL-C decrease, the CETP model was included as a link between the PK model of CKD-519 and cholesterol (HDL-C and LDL-C) models. For the CETP model, CETP activity was used as a dependent variable as this was the primary parameter of interest.
The turnover model was used to describe the relationship between CETP activity and plasma concentration of CKD-519. The effect of CKD-519 was applied in the model as stimulating the elimination of CETP activity. Because the CETP activity increased over time in the placebo group, the response of placebo treatment was incorporated into the CETP model. The effects of CKD-519 and placebo treatment were evaluated as linear, Emax, or sigmoid Emax relationships. […]

CETP activity [4] = molecular target: T1, CETP activity; design: method as in PMID 27895466; conditions: healthy subjects, cited from earlier work
[5] = food effect on PK, single 200 mg, standard meal vs fasted; format: in vivo, human; conditions: single 200 mg with a standard meal; in house data
From the text: as §4

[6] = cited from earlier work
[7] = final population PK model estimate

Compound: COc1cc(F)c(C(C)C)cc1C1=C(CN2C(=O)O[C@H](c3cc(C(F)(F)F)cc(C(F)(F)F)c3)[C@@H]2C)CC(C)(C)CC1 [CKD-519]
- LogP [1]: > 5.0
- increase in serum CETP concentration (serum CETP concentration): approximately 2.5 fold
- ωGAM, interindividual variability on γ (LDL-C; CV%, LDL-C model): 50.9%
- R50, CETP activity of half-maximal effect on LDL-C response (LDL-C; LDL-C model estimate): 80.7 pmol
- Rmax, maximal effect of CETP activity on LDL-C response (LDL-C; LDL-C model estimate): 0.8
- γ, steepness of the CETP activity versus LDL-C relationship (LDL-C; LDL-C model estimate): 2.2
- maximal decrease in LDL-C (LDL-C; estimated): 47–66%
- inhibitory effect of CETP activity (CETP activity [2]; fasted group): 81.5%
- inhibitory effect of CETP activity (CETP activity [2]; fed group): 91.4%
- R50, CETP activity of half-maximal effect on HDL-C response (HDL-C; HDL-C model estimate): 185.0 pmol
- Rmax, maximal effect of CETP activity on HDL-C response (HDL-C; HDL-C model estimate): 1.5
- γ, steepness of the CETP activity versus HDL-C relationship (HDL-C; HDL-C model estimate): 2.1
- maximal increase in HDL-C (HDL-C; estimated): 160–190%
- increase of CL/F from 50 mg to 200 mg ([3]; 50 mg vs 200 mg): approximately 2.5 fold
- increase of AUC after multiple administration compared to the first dose ([3]; 400 mg group): three-fold increase
- α1, proportionality constant for fraction of first-order absorption process depending on time ([3]; 50, 100 and 200 mg dose groups): 0.002
- ωBmax, interindividual variability on BMAX ([3]; CV%): 28.2%
- ωCL/F, interindividual variability on CL/F ([3]; CV%): 15.6%
- ωKtr, interindividual variability on Ktr ([3]; CV%): 14.1%
- ωV3/F, interindividual variability on V3/F ([3]; CV%): 58.1%
- Tmax ([3]; all dose groups): approximately 1 h
- Ka, absorption rate constant [3, 7]: 1.09 h⁻¹
- V2/F, volume of peripheral compartment 1 [3, 7]: 45.4 L
- V3/F, volume of peripheral compartment 2 [3, 7]: 1006.0 L
- V/F, volume of central compartment [3, 7]: 11.4 L
- CL/F, clearance ([3]; final population PK model estimate, 50–400 mg daily for 14 days with standard meal): 6.4 L/h
- Ktr, transit rate constant ([3]; final population PK model estimate, Erlang's absorption, five transit compartments): 1.10 h⁻¹
- CL/F ([3]; 50 mg): 11.98 L/h
- CL/F ([3]; 200 mg): 30.04 L/h
- CL/F ([3]; 400 mg): 23.98 L/h
- half-life ([3]; terminal, across dose groups): 145.4 to 166.2 h
- EC50, plasma drug concentration of half-maximal effect on CETP activity (Plasma CETP activity; CETP model estimate): 0.587 µg/mL
- Emax, maximal effect of plasma drug concentration on CETP activity (Plasma CETP activity; CETP model estimate, stimulation of Kout): 18.2
- ωEmax, interindividual variability on Emax (Plasma CETP activity; CV%): 39.5%
- maximum inhibitory effect of CETP activity (CETP activity [4]; single administration 25–400 mg): 63–83%
- EC50 (CETP activity) (CETP activity [4]; single administration): 0.0173 µg/mL (≈ 0.0288 µM)
- increase in AUC relative to the fasted state [5]: 5.8 fold
- increase in Cmax relative to the fasted state [5]: 8.7 fold
- aqueous solubility [6]: less than 1.0 μg/mL
- solubility in deionized water ([6]; in vitro solubility test): insoluble
- solubility in ethyl alcohol ([6]; in vitro solubility test): freely soluble
